Laboratory results as given in US11414450B1, “Aminoglycosides and uses thereof” (REVAGENIX, INC., priority 2017, dated 2022).
Values after ≈ are worked out from the molar mass of the structure shown.

Assays:
[1] = system: P. aeruginosa efflux parent; assay: MIC broth microdilution, P. aeruginosa efflux parent strain; format: cell-based; settings: for MIC: Pseudomonas aeruginosa, P. aeruginosa efflux parent strain, read-out: Geometric Mean MIC values, P. aeruginosa efflux parent
Experimental: (§1) Minimum inhibitory concentrations for the example compounds herein are determined by the broth microdilution method in accordance with the Clinical and Laboratory Standards Institute (CLSI) guidelines. In brief, organism suspensions are adjusted to a 0.5 McFarland standard to yield a final inoculum between 3×10^5 and 7×10^5 colony-forming units (CFU)/mL. Compound dilutions and inocula are made in sterile, cation adjusted Mueller-Hinton Broth (Beckton Dickinson). The inoculum is prepared by suspension of a colony from an agar plate that is prepared the previous day. Bacteria are suspended in sterile saline and added to each assay plate to obtain a final concentration of 5×10^5 CFU/mL. An inoculum volume of 100 μL is added to wells containing 100 μL of broth with 2-fold serial dilutions of the compound. All inoculated microdilution trays are incubated in ambient air at 35° C. for 18-24 hours. Following incubation, the lowest concentration of the compound that prevents visible growth (OD 600 nm<0.05) is recorded as the MIC. […] Performance of the assay is monitored by the use of laboratory quality-control strains and a compound with a defined MIC spectrum (such as levofloxacin), in accordance with CLSI guidelines. Compounds are tested against multiple microbiologic panels. Panels include: 1) a multi-species primary screening panel that includes multiple defined AG-R mechanisms; 2) a panel of isogenic strains carrying different common mechanisms of AG-R that allows characterization of the SAR for AMEs, RMTs, and entry and efflux resistance mechanisms; and 3) panels of recent clinical isolates selected from Phase 3 studies and ongoing global surveillance.

translation = assay: Translation Inhibition Assay; format: biochemical
Source text: Biological Example 2: Translation Inhibition Assay

[2] = system: P. aeruginosa Δefflux (MexAB-OprM, MexCD-OprJ, MexEF-OprN knocked out); assay: MIC broth microdilution, P. aeruginosa Δefflux strain; format: cell-based
Experimental: as §1

P. aeruginosa ATCC 27853 = assay: MIC broth microdilution, P. aeruginosa ATCC 27853; format: cell-based; settings: for MIC: Pseudomonas aeruginosa, ATCC27853, P. aeruginosa ATCC 27853, contains aph(3′)-IIb, read-out: Geometric Mean MIC values, P. aeruginosa ATCC 27853
Experimental: as §1

[3] = system: E. coli Δefflux (tolC efflux pump knocked-out); assay: MIC broth microdilution, E. coli Δefflux strain (tolC knocked out); format: cell-based; settings: Table 1
Experimental: as §1

E. coli ATCC 25922 = assay: Minimum inhibitory concentration (broth microdilution, CLSI), E. coli ATCC 25922; format: cell-based; settings: Table 1; geometric mean
Experimental: as §1

E. coli efflux parent = assay: MIC broth microdilution, E. coli efflux parent strain; format: cell-based; settings: Table 1; geometric mean
Experimental: as §1

[4] = Table 2, MexEF-OprN efflux pumps knocked out
[5] = Table 2, strain contains aph(3′)-IIb
[6] = Table 1, MexEF-OprN efflux pumps knocked out
[7] = P. aeruginosa Δefflux, MexEF-OprN efflux pumps knocked out

Compound	Geometric Mean MIC values, P. aeruginosa efflux parent ([1]; Table 2) [µg/mL]	IC50 (translation; Table 2) [nM]	Geometric Mean MIC values, P. aeruginosa Δefflux [2, 4] [µg/mL]	Geometric Mean MIC values, P. aeruginosa ATCC 27853 (P. aeruginosa ATCC 27853; [5]) [µg/mL]	further results
NC[C@@H]1O[C@H](O[C@H]2[C@@H](O)[C@H](O[C@@H]3[C@@H](O)[C@H](N)C[C@H](N)[C@H]3O[C@H]3O[C@H](CN)[C@H](O)[C@H](F)[C@H]3N)O[C@@H]2CO)[C@H](N)[C@@H](O)[C@@H]1O	2	18	0.5	1	–
NC[C@@H]1O[C@H](O[C@H]2[C@@H](O)[C@H](O[C@@H]3[C@@H](O)[C@H](N)C[C@H](N)[C@H]3O[C@H]3O[C@H](CN)[C@@H](O)C(F)(F)[C@H]3N)O[C@@H]2CO)[C@H](N)[C@@H](O)[C@@H]1O	8	62	1	4	–
NC[C@@H]1O[C@H](O[C@H]2[C@@H](O)[C@H](O[C@@H]3[C@@H](O)[C@H](N)C[C@H](N)[C@H]3O[C@H]3O[C@H](CN)C(F)(F)[C@H](O)[C@H]3N)O[C@@H]2CO)[C@H](N)[C@@H](O)[C@@H]1O	8	13	1	64	–
NCC1CCC(N)C(OC2C(N)CC(N)C(O)C2OC2OC(CO)C(OC3OC(CN)C(O)C(O)C3N)C2O)O1 (stereo not shown) [drawing 848]	–	–	–	–	Geometric Mean MIC values, P. aeruginosa efflux parent ([1]; Table 1, geometric mean): 0.77 µg/mL; IC50 (translation; Table 1): 13 nM; Geometric Mean MIC values, E. coli Δefflux [3]: 1.4 µg/mL; Geometric Mean MIC values, E. coli ATCC 25922 (E. coli ATCC 25922): 1.1 µg/mL; Geometric Mean MIC values, E. coli efflux parent (E. coli efflux parent): 1.4 µg/mL; Geometric Mean MIC values, P. aeruginosa Δefflux [2, 6]: 0.5 µg/mL; Geometric Mean MIC values, P. aeruginosa ATCC 27853 (P. aeruginosa ATCC 27853; Table 1, geometric mean): 0.57 µg/mL
CC(N)C1CCC(N)C(OC2C(N)CC(N)C(O)C2OC2OC(CO)C(OC3OC(CN)C(O)C(O)C3N)C2O)O1 (stereo not shown) [drawing 849]	–	–	–	–	Geometric Mean MIC values, P. aeruginosa efflux parent ([1]; Table 1, geometric mean): 1 µg/mL; IC50 (translation; Table 1): 14 nM; Geometric Mean MIC values, E. coli Δefflux [3]: 1 µg/mL; Geometric Mean MIC values, E. coli ATCC 25922 (E. coli ATCC 25922): 1.6 µg/mL; Geometric Mean MIC values, E. coli efflux parent (E. coli efflux parent): 1 µg/mL; Geometric Mean MIC values, P. aeruginosa Δefflux [2, 6]: 0.5 µg/mL; Geometric Mean MIC values, P. aeruginosa ATCC 27853 (P. aeruginosa ATCC 27853; Table 1, geometric mean): 0.71 µg/mL
CC(N)C1CCC(N)C(OC2C(N)CC(N)C(O)C2OC2OC(CO)C(OC3OC(CN)C(O)C(O)C3N)C2O)O1 (stereo not shown) [drawing 850]	–	–	–	–	Geometric Mean MIC values, P. aeruginosa efflux parent ([1]; Table 1, geometric mean): 4 µg/mL; IC50 (translation; Table 1): 14 nM; Geometric Mean MIC values, E. coli Δefflux [3]: 1 µg/mL; Geometric Mean MIC values, E. coli ATCC 25922 (E. coli ATCC 25922): 2.5 µg/mL; Geometric Mean MIC values, E. coli efflux parent (E. coli efflux parent): 1 µg/mL; Geometric Mean MIC values, P. aeruginosa Δefflux [2, 6]: 0.5 µg/mL; Geometric Mean MIC values, P. aeruginosa ATCC 27853 (P. aeruginosa ATCC 27853; Table 1, geometric mean): 2 µg/mL
NCC1CCC(N)C(OC2C(N)CC(N)C(O)C2OC2OC(CO)C(OC3OC(CN)C(O)C(O)C3N)C2O)O1 (stereo not shown) [drawing 872, reference compound]	0.73	10	0.4	0.53	–
CC(N)C1CCC(N)C(OC2C(N)CC(N)C(O)C2OC2OC(CO)C(OC3OC(CN)C(O)C(O)C3N)C2O)O1 (stereo not shown) [drawing 873]	1.2	12	0.42	0.84	–
CC(N)C1CCC(N)C(OC2C(N)CC(N)C(O)C2OC2OC(CO)C(OC3OC(CN)C(O)C(O)C3N)C2O)O1 (stereo not shown) [drawing 874]	4	14	0.5	2	–
NCC1OC(OC2C(CO)OC(OC3C(O)C(N)CC(N)C3OC3OC(C4(N)CC4)CCC3N)C2O)C(N)C(O)C1O (stereo not shown) [drawing 875]	2	7.5	0.25	2	–
CCC(N)C1CCC(N)C(OC2C(N)CC(N)C(O)C2OC2OC(CO)C(OC3OC(CN)C(O)C(O)C3N)C2O)O1 (stereo not shown) [drawing 876]	2	32	0.5	1.4	–
CCC(N)C1CCC(N)C(OC2C(N)CC(N)C(O)C2OC2OC(CO)C(OC3OC(CN)C(O)C(O)C3N)C2O)O1 (stereo not shown) [drawing 877]	2	26	0.5	1	–
NCC1OC(OC2C(N)CC(N)C(O)C2OC2OC(CO)C(OC3OC(CN)C(O)C(O)C3N)C2O)C(N)CC1O (stereo not shown) [drawing 880, reference compound]	0.5	8.5	0.25	0.25	–
NC[C@@H]1O[C@H](O[C@H]2[C@@H](O)[C@H](O[C@@H]3[C@@H](O)[C@H](N)C[C@H](N)[C@H]3O[C@H]3O[C@H](CN)[C@@H](O)[C@H](O)[C@H]3N)O[C@@H]2CO)[C@H](N)[C@@H](O)[C@@H]1O [drawing 881, neomycin, reference compound]	6.8	7.3	2.2	1	–
NCC1OC(OC2C(CO)OC(OC3C(O)C(N)CC(N)C3OC3OC(CN)C(O)C(F)C3N)C2O)C(N)C(O)C1O (stereo not shown) [drawing 882]	2	10	0.5	1	–
NCC1OC(OC2C(CO)OC(OC3C(O)C(N)CC(N)C3OC3OC(CN)C(O)C(F)C3O)C2O)C(N)C(O)C1O (stereo not shown) [drawing 883]	4	24	0.5	2	–
NCC1OC(OC2C(CO)OC(OC3C(O)C(N)CC(N)C3OC3OC(CN)C(O)C(F)C3N)C2O)C(N)C(O)C1O (stereo not shown) [drawing 884]	8	100	2	4	–
NC[C@@H]1CC[C@@H](N)[C@@H](O[C@@H]2[C@@H](N)[C@H](O)[C@@H](N)[C@H](O)[C@H]2O[C@@H]2O[C@H](CO)[C@@H](O[C@H]3O[C@@H](CN)[C@@H](O)[C@H](O)[C@H]3N)[C@H]2O)O1 [drawing 890]	–	–	–	–	MIC [1]: 1 µg/mL (≈ 1.67 µM); IC50 (translation; translation inhibition assay): 7.9 nM; Geometric Mean MIC values, P. aeruginosa Δefflux [2, 7]: 0.25 µg/mL; MIC (P. aeruginosa ATCC 27853): 0.5 µg/mL (≈ 0.835 µM)
CO[C@@H]1[C@@H](O[C@@H]2O[C@H](CO)[C@@H](O[C@H]3O[C@@H](CN)[C@@H](O)[C@H](O)[C@H]3N)[C@H]2O)[C@H](O[C@H]2O[C@H](CN)CC[C@H]2N)[C@@H](N)C[C@H]1N [drawing 891]	–	–	–	–	MIC [1]: 1 µg/mL (≈ 1.68 µM); IC50 (translation; translation inhibition assay): 5.7 nM; Geometric Mean MIC values, P. aeruginosa Δefflux [2, 7]: 0.25 µg/mL; MIC (P. aeruginosa ATCC 27853): 1 µg/mL (≈ 1.68 µM)
